Test: Hydrophilicity test (dispersion)
Format: physicochemical

- dispersion (hydrophilicity): 0.4 µg/mL
Structure (SMILES): CC(=O)O[C@H]1C(=O)[C@@]2(C)[C@H]([C@H](OC(=O)c3ccccc3)[C@]3(O)C[C@H](OC(=O)[C@H](O)[C@@H](NC(=O)c4ccccc4)c4ccccc4)C(C)=C1C3(C)C)[C@]1(OC(C)=O)CO[C@@H]1C[C@@H]2O [paclitaxel]
